Experiment: Solid-state stability of packaged Form A / crystalline polymorphs under accelerated and long term conditions
Assay type: physicochemical
Details: for degradation of packaged Form A: double LDPE bag inside heat sealed anhydrous foil bag in HDPE container
Protocol: Form A of sodium 2-(5-bromo-4-(4-cyclopropylnaphthalen-1-yl)-4H-1,2,4-triazol-3-ylthio)acetate was tested under various conditions to determine thermodynamic stability. […] Packaging was in a double low density polyethylene plastic bag inside a heat sealed anhydrous foil bag in an HDPE container.
The improved stability of the crystalline polymorphs of sodium 2-(5-bromo-4-(4-cyclopropylnaphthalen-1-yl)-4H-1,2,4-triazol-3-ylthio)acetate provides for the preparation of pharmaceutical dosage forms displaying reduced variability in the dosage present in a given dosage form, reduction in the presence of impurities in the final pharmaceutical product, and an improved shelf life of formulated dosage forms when compared to the pharmaceutical dosage form prepared with the amorphous solid state form of the carboxylic acid.

Structure (SMILES): O=C([O-])CSc1nnc(Br)n1-c1ccc(C2CC2)c2ccccc12.[Na+] [Form A, sodium 2-(5-bromo-4-(4-cyclopropylnaphthalen-1-yl)-4H-1,2,4-triazol-3-ylthio)acetate]
- degradation of packaged Form A (accelerated conditions (40° C.-75% RH), 6 months): No degradation
- degradation of packaged Form A (long term conditions (25° C.-60% RH), 12 months): no degradation
- stability in comparison to the amorphous solid state form of the carboxylic acid (free acid) (solid state): improvement over the solid state amorphous free acid

Source: US8524754B2, “Polymorphic, crystalline and mesophase forms of sodium 2-(5-bromo-4-(4-cyclopropylnaphthalen-1-yl)-4H-1,2,4-triazol-3-ylthio) acetate, and uses thereof” (Ardea Biosciences, Inc., priority 2010, dated 2013)
